Experimental data published in patent US20250041429A1, “COMPOUND HAVING BTK PROTEIN DEGRADATION ACTIVITY, AND MEDICAL USES THEREOF” (UBIX THERAPEUTICS, INC., priority 2021, published 2025).

Target: T1, BTK protein (Homo sapiens, UniProt Q06187)
T1 construct: endogenous in cells; host or cells: TMD-8 cells
Assay: Measurement of BTK protein degradation ability in TMD-8 cells (Western blotting)
Format: cell-based
Conditions: harvested after 24 hours; for BTK degradation (%) 1 nM: compound 1 nM; for BTK degradation (%) 10 nM: compound 10 nM; for BTK degradation (%) 100 nM: compound 100 nM
In short: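 TMD-8 cells (1×10^6/mL) were treated for 24 h with compound at 0.1, 1, 10 μM or 0.0001–0.1 μM, with DMSO as vehicle control. RIPA lysates were normalized by BCA assay. BTK was detected by Western blot with anti-BTK, using GAPDH or β-actin as loading controls, and imaged on LI-COR Odyssey.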

T1 sequence (Q06187 whole entry): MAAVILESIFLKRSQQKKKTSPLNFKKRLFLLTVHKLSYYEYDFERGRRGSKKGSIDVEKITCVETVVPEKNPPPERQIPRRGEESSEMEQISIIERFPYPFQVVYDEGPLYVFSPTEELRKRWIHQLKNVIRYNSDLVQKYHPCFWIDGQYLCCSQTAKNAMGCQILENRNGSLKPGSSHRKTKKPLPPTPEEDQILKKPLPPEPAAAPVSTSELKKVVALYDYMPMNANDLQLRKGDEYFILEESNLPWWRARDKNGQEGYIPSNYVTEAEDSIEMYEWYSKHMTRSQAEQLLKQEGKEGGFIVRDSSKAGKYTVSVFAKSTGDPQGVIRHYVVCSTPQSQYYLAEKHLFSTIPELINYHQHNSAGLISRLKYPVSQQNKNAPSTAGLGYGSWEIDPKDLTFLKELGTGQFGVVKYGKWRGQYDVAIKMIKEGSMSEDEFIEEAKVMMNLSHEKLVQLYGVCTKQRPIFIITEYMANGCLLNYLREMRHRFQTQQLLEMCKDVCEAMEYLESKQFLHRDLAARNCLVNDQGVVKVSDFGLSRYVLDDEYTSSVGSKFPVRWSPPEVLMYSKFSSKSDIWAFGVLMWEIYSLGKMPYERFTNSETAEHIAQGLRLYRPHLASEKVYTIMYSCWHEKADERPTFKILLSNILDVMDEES

| Structure (SMILES) | BTK degradation (%) 1 nM | BTK degradation (%) 10 nM | BTK degradation (%) 100 nM |
| --- | --- | --- | --- |
| Cc1cc(-c2ccnc(Nc3ccc(CN4CCN(CC5CCN(c6cccc(N7CCC(=O)NC7=O)c6)CC5)CC4)cc3)n2)ccc1CNC(=O)N1CC(OC(C)C)C1 [Example 67, N-(4-(2-((4-((4-((1-(3-(2,4-dioxotetrahydropyrimidin-1 (2H)-yl)phenyl)piperidin-4-yl)methyl)piperazin-1-yl)methyl)phenyl)amino)pyrimidin-4-yl)-2-methylbenzyl)-3-isopropoxyazetidine-1-carboxamide] | 13.5% | 77.0% | 98.0% |
| Cc1cc(-c2ccnc(Nc3ccc(CN4CCN(CC5CCN(c6ccc(N7CCC(=O)NC7=O)cc6)CC5)CC4)cc3)n2)ccc1CNC(=O)N1CC(OC(C)C)C1 [Example 68, N-(4-(2-((4-((4-((1-(4-(2,4-dioxotetrahydropyrimidin-1 (2H)-yl)phenyl)piperidin-4-yl)methyl)piperazin-1-yl)methyl)phenyl)amino)pyrimidin-4-yl)-2-methylbenzyl)-3-isopropoxyazetidine-1-carboxamide] | 22.5% | 88.0% | 99.0% |
| Cc1cc(-c2ccnc(Nc3ccc(N4CCN(CC5CCN(c6ccc(N7CCC(=O)NC7=O)cc6)CC5)CC4)cc3)n2)ccc1CNC(=O)c1cn(C(C)(C)C)nn1 [Example 71, 1-(tert-butyl)-N-(4-(2-((4-(4-((1-(4-(2,4-dioxotetrahydropyrimidin-1 (2H)-yl)phenyl)piperidin-4-yl)methyl)piperazin-1-yl)phenyl)amino)pyrimidin-4-yl)-2-methylbenzyl)-1H-1,2,3-triazole-4-carboxamide] | 80.5% | 98.0% | 99.5% |
| Cc1cc(-c2ccnc(Nc3ccc(N4CCN(CC5CCN(c6cccc(N7CCC(=O)NC7=O)c6)CC5)CC4)nc3)n2)ccc1CNC(=O)c1cn(C(C)(C)C)nn1 [Example 76] | 55.0% | 96.5% | 100.0% |
| Cc1cc(-c2ccnc(Nc3ccc(N4CCN(CC5CCN(c6ccc(N7CCC(=O)NC7=O)cc6)CC5)CC4)nc3)n2)ccc1CNC(=O)c1cn(C(C)(C)C)nn1 [Example 77] | 57.5% | 96.0% | 99.5% |
| Cc1cc(-c2ccnc(Nc3ccc(N4CCN(CC5CCN(c6cccc(N7CCC(=O)NC7=O)c6)CC5)CC4)cc3)n2)ccc1CNC(=O)c1cnn(C(C)C)c1 [Example 80, N-(4-(2-((4-(4-((1-(3-(2,4-dioxotetrahydropyrimidin-1 (2H)-yl)phenyl)piperidin-4-yl)methyl)piperazin-1-yl)phenyl)amino)pyrimidin-4-yl)-2-methylbenzyl)-1-isopropyl-1H-pyrazole-4-carboxamide] | 73.5% | 98.0% | 99.5% |

Results, then the compound that gave them:

| BTK degradation (%) 1 nM | BTK degradation (%) 10 nM | BTK degradation (%) 100 nM | Structure (SMILES) |
| --- | --- | --- | --- |
| 61.5% | 95.0% | 99.5% | Cc1cc(-c2ccnc(Nc3ccc(CN4CCN(CC5CCN(c6cccc(NC7CCC(=O)NC7=O)c6)CC5)CC4)cc3)n2)ccc1CNC(=O)c1cn(C(C)(C)C)nn1 (stereo not drawn) [Example 69, 1-(tert-butyl)-N-(4-(2-((4-((4-((1-(3-((2,6-dioxopiperidin-3-yl)amino)phenyl)piperidin-4-yl)methyl)piperazin-1-yl)methyl)phenyl)amino)pyrimidin-4-yl)-2-methylbenzyl)-1H-1,2,3-triazole-4-carboxamide] |
| 67.0% | 97.5% | 99.5% | Cc1cc(-c2ccnc(Nc3ccc(N4CCN(CC5CCN(c6cccc(N7CCC(=O)NC7=O)c6)CC5)CC4)cc3)n2)ccc1CNC(=O)c1cn(C(C)(C)C)nn1 [Example 70, 1-(tert-butyl)-N-(4-(2-((4-(4-((1-(3-(2,4-dioxotetrahydropyrimidin-1 (2H)-yl)phenyl)piperidin-4-yl)methyl)piperazin-1-yl)phenyl)amino)pyrimidin-4-yl)-2-methylbenzyl)-1H-1,2,3-triazole-4-carboxamide] |
| 62.5% | 95.5% | 99.0% | Cc1cc(-c2ccnc(Nc3ccc(N4CCN(CC5CCN(c6ccc(NC7CCC(=O)NC7=O)cc6F)CC5)CC4)cc3)n2)ccc1CNC(=O)c1cn(C(C)(C)C)nn1 (stereo not drawn) [Example 72, 1-(tert-butyl)-N-(4-(2-((4-(4-((1-(4-((2,6-dioxopiperidin-3-yl)amino)-2-fluorophenyl)piperidin-4-yl)methyl)piperazin-1-yl)phenyl)amino)pyrimidin-4-yl)-2-methylbenzyl)-1H-1,2,3-triazole-4-carboxamide] |
| 43.0% | 91.5% | 97.0% | Cc1cc(-c2ccnc(Nc3ccc(N4CCN(CC5CCN(c6ccc(N7CCC(=O)NC7=O)cc6F)CC5)CC4)cc3)n2)ccc1CNC(=O)c1cn(C(C)(C)C)nn1 [Example 73] |
| 43.0% | 91.5% | 96.5% | Cc1cc(-c2ccnc(Nc3ccc(CN4CCN(CC5CCN(c6cccc(N7CCC(=O)NC7=O)c6)CC5)CC4)cc3)n2)ccc1CNC(=O)c1cn(C(C)(C)C)nn1 [Example 74, 1-(tert-butyl)-N-(4-(2-((4-((4-((1-(3-(2,4-dioxotetrahydropyrimidin-1 (2H)-yl)phenyl)piperidin-4-yl)methyl)piperazin-1-yl)methyl)phenyl)amino)pyrimidin-4-yl)-2-methylbenzyl)-1H-1,2,3-triazole-4-carboxamide] |
| 14.0% | 87.0% | 98.0% | Cc1cc(-c2ccnc(Nc3ccc(CN4CCN(CC5CCN(c6ccc(N7CCC(=O)NC7=O)cc6)CC5)CC4)cc3)n2)ccc1CNC(=O)c1cn(C(C)(C)C)nn1 [Example 75, 1-(tert-butyl)-N-(4-(2-((4-((4-((1-(4-(2,4-dioxotetrahydropyrimidin-1 (2H)-yl)phenyl)piperidin-4-yl)methyl)piperazin-1-yl)methyl)phenyl)amino)pyrimidin-4-yl)-2-methylbenzyl)-1H-1,2,3-triazole-4-carboxamide] |
| 43.5% | 93.5% | 99.0% | Cc1cc(-c2ccnc(Nc3ccc(C4CCN(CC5CCN(c6cccc(N7CCC(=O)NC7=O)c6)CC5)CC4)cc3)n2)ccc1CNC(=O)c1cn(C(C)(C)C)nn1 [Example 78, 1-(tert-butyl)-N-(4-(2-((4-(1-((1-(3-(2,4-dioxotetrahydropyrimidin-1 (2H)-yl)phenyl)piperidin-4-yl)methyl)piperidin-4-yl)phenyl)amino)pyrimidin-4-yl)-2-methylbenzyl)-1H-1,2,3-triazole-4-carboxamide] |
| 26.0% | 92.5% | 98.0% | Cc1cc(-c2ccnc(Nc3ccc(C4CCN(CC5CCN(c6ccc(N7CCC(=O)NC7=O)cc6)CC5)CC4)cc3)n2)ccc1CNC(=O)c1cn(C(C)(C)C)nn1 [Example 79, 1-(tert-butyl)-N-(4-(2-((4-(1-((1-(4-(2,4-dioxotetrahydropyrimidin-1 (2H)-yl)phenyl)piperidin-4-yl)methyl)piperidin-4-yl)phenyl)amino)pyrimidin-4-yl)-2-methylbenzyl)-1H-1,2,3-triazole-4-carboxamide] |
